This is an account of results in patent US6346547B1, “N-substituted amino acids, antioxidant pharmaceutical compositions containing n-substituted amino acids and methods for preventing cardiovascular diseases and/or preventing and/or treating antioxidant responsive diseases therewith” (Checkpoint, Genetics, Inc., priority 1999, dated 2002).

Several values for one entry are separate records, joined by “and”; a condition that tells them apart may be missing. Equal entries are not always repeated.

Data set [1] relates to human Low Density Lipoprotein. As to the kind of experiment: inhibition of copper catalyzed LDL autoxidation (FOX assay). It counts as biochemical. On the procedure: The antioxidant performance of test compounds was evaluated by measuring the extent of low density lipoprotein hydroxyperoxide by copper catalyzed autoxidation using a published dye based color assay (FOX Assay, see Zadeh, “Methods in Enzymology”, 300, 58 (1999)). The assay is easily performed and read in a 96-well microtitre plate. Microtitre plate readers assure rapid measurement of optical density which gives precise replicate measurements. Samples are evaluated in duplicate of triplicate (n=2 or n=3) with FOX reagent to indicate the level of LDL-hydroperoxide formed. Samples containing only LDL and copper sulfate without test materials, served as a positive control for comparison with identical mixtures containing test materials (Tables 1-6). Inhibition is characterized by a lower optical density than that obtained without test materials (LDL and copper sulfate alone).
Briefly, the procedure involved mixing human Low Density Lipoprotein (Sigma Chemical Company L2139) at a concentration of between 200-1000 μg/mL in phosphate buffered saline pH−7.4 (Pierce #28372 BupH™ with copper sulfate to a final concentration of 10 μg/mL. Incubation at 25° C. or 37° C., open to air effected oxidation, the mixture was sampled at time zero and between 3 and 20 hours of incubation for measurement of hydroperoxide in the FOX assay. Samples 25-30 μL were diluted with 10 volumes of FOX reagent (ferrous ammonium sulfate and […], see Zadeh, noted above) and allowed to stand for 30 minutes. Thereafter they were read in a microtitre plate reader.
The inhibition of LDL oxidation by tricine, bicine, monocine, vitamin E, glycine-glycine (Good's buffer compound XIV) and seaweed extract was studied in the procedure above. Using the spectrophotometric technique known as the FOX assay, as described in Jiang, Z., et al., “Ferrous Ion Oxidation in Presence of Xylenol Orange for Detection of Lipid Hydroperoxide in Low Density Lipoprotein”, Analytical Biochemistry, Vol. 202, pp. 384-9 (1992), the oxidation of LDL's in the presence of known hydroxyl radical scavengers (vitamin E and Good's buffer glycine-glycine), and in the presence of therapeutic agents in accordance with the present invention (tricine, bicine, seaweed extract), was monitored. […] Norman Good et al., “Hydrogen Ion Buffers For Biological Research,” Biochemistry, vol. 5, p. 467 (1966). […] Table 6 is a comparison of tricine, bicine, monocine and vitamin E oxidation inhibition of LDL at 37° C., average n=3 measurement with standard deviation.

Data set [2] concerns Mongolian gerbils. The data set can be described thus: gerbil forebrain ischemia (bilateral carotid occlusion): locomotor activity. It counts as in vivo, Mongolian gerbil. As to conditions: individual gerbil, Group 3, approximately 96 hours after surgery. On the procedure: Mongolian gerbils are subjected to bilaterial occlusion of carotid arteries to cause complete forebrain ischemia. The Mongolian gerbil is extensively used as a model of cerebral ischemia because of its unusual cerebral circulation resulting in sensitive and pronounced destruction of hippocampal neuron cells. as a result, bilateral occlusion of carotid arteries causes complete forebrain ischemia. The gerbils were divided into three groups, Group 1 gerbils were sham control and were administered vehicle (control) orally without carotid occlusion. Group 2 received oral tricine treatment at 2000 mg/Kg in vehicle solution both 60 minutes before and after carotid occlusion. […] The arteries were occluded after a midline cervical incision was made to expose both common carotid arteries. The surgery was performed on a heated surface to maintain body temperature. On completion of surgery, the animals were placed on Vetbed® and allowed to recover under a heat lamp. (Group 1) was subjected to the same surgical procedures except that the carotid arteries were not occluded. The day of surgery is identified as Day 1. At approximately 96 hours after surgery, animals were tested for changes in locomotor activity, over two (2) consecutive periods of 15 minutes, using an automated cage. The automated cages contained photoactivated beams at two (2) positions (a low height and a high height) that recorded the number of crossings each gerbil made in each of two consecutive 15 minute periods.

For data set [3], the system named is hippocampal neurons, CA1 area. The data set can be described thus: gerbil forebrain ischemia (bilateral carotid occlusion): histology of CA1 neuronal damage. It counts as in vivo, Mongolian gerbil. As to conditions: oral tricine 2000 mg/Kg 60 minutes before and after carotid occlusion, day 5. More on the design: Total Rating, severity of neuronal damage to CA1 area, individual gerbil: scale not given here. On the procedure:
Mongolian gerbils are subjected to bilaterial occlusion of carotid arteries to cause complete forebrain ischemia. The Mongolian gerbil is extensively used as a model of cerebral ischemia because of its unusual cerebral circulation resulting in sensitive and pronounced destruction of hippocampal neuron cells. as a result, bilateral occlusion of carotid arteries causes complete forebrain ischemia. The gerbils were divided into three groups, Group 1 gerbils were sham control and were administered vehicle (control) orally without carotid occlusion. Group 2 received oral tricine treatment at 2000 mg/Kg in vehicle solution both 60 minutes before and after carotid occlusion. Group […] gerbils received vehicle (control) 60 minutes before and after occlusion. The arteries were occluded after a midline cervical incision was made to expose both common carotid arteries. The surgery was performed on a heated surface to maintain body temperature. On completion of surgery, the animals were placed on Vetbed® and allowed to recover under a heat lamp. (Group 1) was subjected to the same surgical procedures except that the carotid arteries were not occluded. The day of surgery is identified as Day 1. Animals were killed on day 5, after completion of locomotor testing, by overdose with anaesthetic and perfusion with saline followed by a solution containing 10% neutral buffered formalin to fix the brain in situ. The brains were removed by dissection, 5 μm sections were taken at the level of the dorsal hippocampus, to coincide with CA1 area, and stained with haematoxylin and eosin. the sections were examined under light microscope, rated for severity of neuronal damage to the CA1 area.

The test system of data set [4] is New Zealand white rabbits. As to the kind of experiment: atherosclerotic lesions in thoracic aorta of cholesterol-fed rabbits. Type of data set: in vivo, rabbit. As to conditions: 12 weeks. From the text: Ten female new Zealand white rabbits were divided into two groups of five (5) rabbits and subjected to an identical diet of Purina® rabbit chow supplemented with 1% cholesterol. […] A second group of five (5) rabbits received 1% tricine in their drinking water. Both groups were maintained under this feeding protocol for a period of twelve (12) weeks. Plasma samples were taken at study initiation and at two (2) week intervals throughout the study for measurement of total cholesterol. Systemic observations and body weights were regularly recorded. At twelve (12) weeks, the thoracic aorta was harvested from each animal, sliced longitudinally and preserved in 10% neutral formalin for subsequent analysis. Each aorta was individually stained with Sudan IV, and photographed for the extent of atherosclerotic lesions. Comparisons of percent atheroscledrotic lesions on the luminal surface between the groups enabled evaluation of the effect of tricine test article on atherosclerosis in this rabbit model.

The test system of data set [5] is Mongolian gerbils. The data set can be described thus: gerbil forebrain ischemia (bilateral carotid occlusion): locomotor activity. Type of data set: in vivo, Mongolian gerbil. As to conditions: individual gerbil, Group 3, approximately 96 hours after surgery, first 15 minute period.
Data set [6] concerns hippocampal neurons, CA1 area. As to the kind of experiment: gerbil forebrain ischemia (bilateral carotid occlusion): histology of CA1 neuronal damage. It counts as in vivo, Mongolian gerbil. More on the design: scale not given here. As to conditions: Group 3, 6 animals examined.
For data set [7], the system named is rats. As to conditions: both, rat, in vivo, po, 14 days. On the procedure: It is essential that any amino-acid-based compound used in accordance with the present invention have a low toxicity such that internal use in humans and other mammals is safe and well tolerated. Amino acid-based compounds used in accordance with the invention generally display no acute toxic effects at 1000 mg/Kg in rats after 2 weeks following oral administration. Preferably, amino acid-based compounds used in accordance with the present invention will display no effects at oral doses of at least 2000 mg/Kg in rats. […] For example, a cohort of rats can be fed a given dosage of an amino acid-based compound of general formula (I) and the relative toxic effects of the cohort can be monitored in comparison to a cohort fed a normal diet using standard EPA protocols.
Two cohorts of rats, each consisting of five females and five males, were marked and weighed. Each rat in a single cohort was administered 2000 mg/kg of tricine in a single oral dosage. Survival and body weight of the rats in each cohort was evaluated after 14 days to determine relative acute toxicity. Survival and general pathology was identical for both the control cohort and the tricine-treated cohort.

Where [8] appears, read: 10 mM, time 0 hours, 37° C., average n=3, none 0.03.
The mark [9] stands for this setting: 10 mM, time 3 hours, 37° C., average n=3, none 0.99.
Setting [10] is: 1% tricine in drinking water, 1% cholesterol diet, Sudan IV stain.
Where [11] appears, read: 1% tricine in drinking water, five rabbits, control mean 65.

Consider `O=C(O)CN(CCO)CCO` [Bicine, N,N-bis(hydroxyethyl)glycine], for which the “FOX assay OD (LDL hydroperoxide)” value in data set [1] (setting [8]) is −0.02; in data set [1] (setting [9]) it was 0.02; in data set [1] (Bicine 25 μM, time 0 hours, room temperature, average n = 3) it was −0.010; in data set [1] (Bicine 25 μM, time 4 hours, room temperature, average n = 3, none 0.295), 0.050; in data set [1] (Bicine 50 μM, time 0 hours, room temperature, average n = 3) it was −0.007; in data set [1] (Bicine 50 μM, time 4 hours, room temperature, average n = 3, none 0.295), 0.030. The “FOX assay OD (LDL hydroperoxide)” value in data set [1] (Bicine 100#M, time 0 hours, room temperature, average n = 3) was −0.002; in data set [1] (Bicine 100#M, time 4 hours, room temperature, average n = 3, none 0.295) it was 0.04.
In the case of `O=C(O)CNCCO` [Monocine, N-hydroxyethyl glycine], the “FOX assay OD (LDL hydroperoxide)” value in data set [1] (setting [8]) is listed as −0.04; in data set [1] (setting [9]), 0.05.
`O=C(O)CNC(CO)(CO)CO` [Tricine, N-tris(hydroxymethyl)methyl glycine]: the “locomotor activity, beam crossings, High beam, Total” value in data set [2] was 71 and 51 and 76 and 56 and 174. Moreover, the “locomotor activity, beam crossings, Low beam, Total” value in data set [2] was 665 and 691 and 525 and 615 and 727 and 451. Further, the “locomotor activity, beam crossings, Low beam, 15 min” value in data set [2] (first 15 minute period) is 455 and 559 and 456 and 553 and 543 and 372. Also, in data set [2] (second 15 minute period), the “locomotor activity, beam crossings, High beam, 30 min” value was 15 and 7 and 9 and 16 and 12 and 64. In addition, in data set [2] (second 15 minute period), the “locomotor activity, beam crossings, Low beam, 30 min” value is 210 and 132 and 69 and 62 and 184 and 79. For the same compound, the “FOX assay OD (LDL hydroperoxide)” value in data set [1] (setting [8]) was −0.01; in data set [1] (setting [9]), 0.05; in data set [1] (Tricine 25 μM, time 0 hours, room temperature, average n = 3), −0.012; in data set [1] (Tricine 25 μM, time 4 hours, room temperature, average n = 3, none 0.295), 0.061; in data set [1] (Tricine 50 μM, time 0 hours, room temperature, average n = 3) it was −0.007; in data set [1] (Tricine 50 μM, time 4 hours, room temperature, average n = 3, none 0.295), 0.038. Besides, the “FOX assay OD (LDL hydroperoxide)” value in data set [1] (Tricine 100 μM, time 0 hours, room temperature, average n = 3) is 0.0645; in data set [1] (Tricine 100 μM, time 4 hours, room temperature, average n = 3, none 0.295), 0.028. Further, in data set [3], the “Side 1 Rating, severity of neuronal damage to CA1 area, individual gerbil” value was 3 (Marked→approximately 75% to 100% of neurons damaged) and 1 (Minimal→up to approximately 25% of neurons damaged) (5×). Moreover, the “Side 2 Rating, severity of neuronal damage to CA1 area, individual gerbil” value in data set [3] is 3 (Marked→approximately 75% to 100% of neurons damaged) and 1 (Minimal→up to approximately 25% of neurons damaged) (4×) and 0. Moreover, in data set [3] (sum of both sides), the “Total Rating, severity of neuronal damage to CA1 area, individual gerbil” value was 6 and 2 (4×) and 1. In addition, in data set [4] (setting [10]), the “Arch Area, percent atherosclerotic lesions on luminal surface, individual rabbit” value was 19% and 39% and 27% and 17% and 22%. In data set [4] (setting [10]), the “Descending Area, percent atherosclerotic lesions on luminal surface, individual rabbit” value was 21% (2×) and 28% and 8% and 17%. The “Total Area, percent atherosclerotic lesions on luminal surface, individual rabbit” value in data set [4] (setting [10]) is 20% and 38% and 26% and 14% and 21%. Moreover, the “Arch Area, Mean Value” in data set [4] (1% tricine in drinking water, five rabbits, control mean 63) is listed as 25%. In addition, the “Descending Area, Mean Value” in data set [4] (setting [11]) turned out to be 19%. Also, the “Total Area, Mean Value” in data set [4] (setting [11]) was 24%. The “Arch Area, Median Value” in data set [4] (1% tricine in drinking water, five rabbits, control median 65) turned out to be 22%. Besides, the “Total Area, Median Value” in data set [4] (1% tricine in drinking water, five rabbits, control median 67) was 21%. Moreover, the “Descending Area, Median Value” in data set [4] (1% tricine in drinking water, five rabbits, control median 68) is 21%. In addition, the “reduced plaque deposits in the aorta” value in data set [4] (tricine treated rabbits versus control group) amounted to 63%. For the same compound, the “locomotor activity, beam crossings, High beam, 15 min” value in data set [5] was 56 and 44 (2×) and 67 and 55 and 110. Also, the “Mean Score for Group” value in data set [6] (occluded vehicle Group 7: 4.3) came to 2.5. Also, the “Total Score for Group” value in data set [6] (occluded vehicle Group 7: 13 (3 animals)) came out at 15. For the same compound, the “preliminary acute toxicity level” value in data set [7] is listed as above 2000 mg/kg.
